Measurements as given in PubChem BioAssay AID220 (DTP/NCI, 2004).
“And” between values parts separate entries of the source, which are not always exact repeats. Equal entries are not always repeated. Results filed as inconclusive are left out.

System: CD8F1 mice, subcutaneous mammary adenocarcinoma, T/C%
Test: NCI In Vivo Anticancer Drug Screen. Data for tumor model Mammary Adenocarcinoma CD8F1 (subcutaneous) in CD8F1
Conditions: higher = larger tumour
Outline: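 Antitumor activity is assessed in transplantable-tumor mice by comparing the treated group with a vehicle-treated control group. Survival or tumor size serves as the measure, reported as T divided by C.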

[1] = endpoint: median tumor weight change, dose: 125.0 mg/kg/injection, schedule: Q01DX001 (ip), vehicle: saline with Tween-80
[2] = endpoint: median tumor weight change, dose: 250.0 mg/kg/injection, schedule: Q01DX001 (ip), vehicle: saline with Tween-80
[3] = endpoint: median tumor weight (est.), dose: 12.5 mg/kg/injection, schedule: Q07DX005 (ip), vehicle: Klucel (hydroxypropylcellulose) (HPC)
[4] = endpoint: median tumor weight (est.), dose: 25.0 mg/kg/injection, schedule: Q07DX005 (ip), vehicle: Klucel (hydroxypropylcellulose) (HPC)
[5] = endpoint: median tumor weight (est.), dose: 100.0 mg/kg/injection, schedule: Q07DX005 (ip), vehicle: Klucel (hydroxypropylcellulose) (HPC)

For `CCOC(OCC)C(=O)OCC(=O)[C@]1(O)Cc2c(O)c3c(c(O)c2[C@@H](OC2CC(N)C(O)C(C)O2)C1)C(=O)c1c(OC)cccc1C3=O` (stereo partly specified), the T/C (endpoint: median tumor weight (est.), dose: 0.5 mg/kg/injection, schedule: Q07DX005 (ip), vehicle: water) was 166 % of control, the T/C (endpoint: median tumor weight (est.), dose: 1.0 mg/kg/injection, schedule: Q07DX005 (ip), vehicle: saline) was 85 % of control and the T/C (endpoint: median tumor weight (est.), dose: 1.0 mg/kg/injection, schedule: Q07DX005 (ip), vehicle: water) was 50 % of control. The T/C (endpoint: median tumor weight (est.), dose: 2.0 mg/kg/injection, schedule: Q07DX005 (ip), vehicle: saline) was 47 % of control, the T/C (endpoint: median tumor weight (est.), dose: 2.0 mg/kg/injection, schedule: Q07DX005 (ip), vehicle: water) was 74 % of control and the T/C (endpoint: median tumor weight (est.), dose: 4.0 mg/kg/injection, schedule: Q07DX005 (ip), vehicle: saline) was 20 % of control. For the same compound, the T/C (endpoint: median tumor weight (est.), dose: 4.0 mg/kg/injection, schedule: Q07DX005 (ip), vehicle: water) was 24 % of control.

`COc1cccc2c1C(=O)c1c(O)c3c(c(O)c1C2=O)C[C@@](O)(C(C)=O)C[C@@H]3OC1CC(N(Cc2ccccc2)Cc2ccccc2)C(O)C(C)O1` (stereo partly specified) was tested, and the T/C (endpoint: median tumor weight (est.), dose: 1.56 mg/kg/injection, schedule: Q07DX005 (ip), vehicle: saline with Tween-80) was 68 % of control, the T/C (endpoint: median tumor weight (est.), dose: 3.12 mg/kg/injection, schedule: Q07DX005 (ip), vehicle: saline with Tween-80) was 72 % of control and the T/C (endpoint: median tumor weight (est.), dose: 6.25 mg/kg/injection, schedule: Q07DX005 (ip), vehicle: saline with Tween-80) was 75 % of control. For the same compound, the T/C (endpoint: median tumor weight (est.), dose: 12.5 mg/kg/injection, schedule: Q07DX005 (ip), vehicle: saline with Tween-80) was 29 % of control and the T/C (endpoint: median tumor weight (est.), dose: 25.0 mg/kg/injection, schedule: Q07DX005 (ip), vehicle: saline with Tween-80) was 9 % of control.

In the case of `Cc1cc2cc3cc(C)c(N)cc3nc2cc1N`, the T/C (endpoint: median tumor weight change, dose: 31.25 mg/kg/injection, schedule: Q01DX001 (ip), vehicle: saline with Tween-80) is reported as 59 % of control, the T/C (endpoint: median tumor weight change, dose: 62.5 mg/kg/injection, schedule: Q01DX001 (ip), vehicle: saline with Tween-80) is reported as 72 % of control and the T/C [1] is reported as 42 % of control. For the same compound, the T/C [2] was 36 % of control.

With `C[C@H](N)C(=O)N[C@@H]1[C@H]2C(=C(O)C[C@@H](O)[C@@H]2O)C(=O)O[C@]1(C)C(Cl)Cl` the T/C (endpoint: median tumor weight change, dose: 1.87 mg/kg/injection, schedule: Q01DX001 (ip), vehicle: Klucel (hydroxypropylcellulose) (HPC)) was 101 % of control and the T/C (endpoint: median tumor weight change, dose: 3.75 mg/kg/injection, schedule: Q01DX001 (ip), vehicle: Klucel (hydroxypropylcellulose) (HPC)) was 101 % of control.

For `CCCCCCC(=O)CC(SCC)c1ccccc1Cl` (stereo unspecified), the T/C [1] was 108 % of control, the T/C [2] was 72 % of control and the T/C (endpoint: median tumor weight change, dose: 500.0 mg/kg/injection, schedule: Q01DX001 (ip), vehicle: saline with Tween-80) was 77 % of control. For the same compound, the T/C (endpoint: median tumor weight change, dose: 1000.0 mg/kg/injection, schedule: Q01DX001 (ip), vehicle: saline with Tween-80) was 72 % of control and the T/C (endpoint: median tumor weight change, dose: 2000.0 mg/kg/injection, schedule: Q01DX001 (ip), vehicle: saline with Tween-80) was 86 % of control.

For `C=C1C(=O)OC2CC(C)C3C4OC4C(O)C3(C)C(O)C12` (stereo unspecified), the T/C (endpoint: median tumor weight change, dose: 62.5 mg/kg/injection, schedule: Q01DX001 (ip), vehicle: saline) was 119 % of control, the T/C (endpoint: median tumor weight change, dose: 125.0 mg/kg/injection, schedule: Q01DX001 (ip), vehicle: saline) was 80 % of control and the T/C (endpoint: median tumor weight change, dose: 250.0 mg/kg/injection, schedule: Q01DX001 (ip), vehicle: saline) was 74 % of control. For the same compound, the T/C (endpoint: median tumor weight change, dose: 500.0 mg/kg/injection, schedule: Q01DX001 (ip), vehicle: saline) was 88 % of control.

With `COc1ccc2c(c1)CCC(c1ccccc1)=C2c1ccc(OCCN2CCCC2)cc1` the T/C (endpoint: median tumor weight (est.), dose: 6.25 mg/kg/injection, schedule: Q07DX005 (ip), vehicle: Klucel (hydroxypropylcellulose) (HPC)) was 119 % of control, the T/C [3] was 99 % of control and 103 % of control and the T/C [4] was 92 % of control and 111 % of control. For the same compound, the T/C (endpoint: median tumor weight (est.), dose: 50.0 mg/kg/injection, schedule: Q07DX005 (ip), vehicle: Klucel (hydroxypropylcellulose) (HPC)) was 77 % of control and 80 % of control and the T/C [5] was 75 % of control and 95 % of control.

For `NC(=O)c1c[se]c(C2OC(CO)C(O)C2O)n1` (stereo unspecified), the T/C (endpoint: median tumor weight change, dose: 50.0 mg/kg/injection, schedule: Q01DX001 (ip), vehicle: water) was 124 % of control, the T/C (endpoint: median tumor weight change, dose: 75.0 mg/kg/injection, schedule: Q01DX001 (ip), vehicle: water) was 45 % of control and the T/C (endpoint: median tumor weight change, dose: 100.0 mg/kg/injection, schedule: Q01DX001 (ip), vehicle: water) was 83 % of control. The T/C (endpoint: median tumor weight change, dose: 150.0 mg/kg/injection, schedule: Q01DX001 (ip), vehicle: water) was 73 % of control, the T/C (endpoint: median tumor weight change, dose: 200.0 mg/kg/injection, schedule: Q01DX001 (ip), vehicle: water) was 89 % of control and the T/C (endpoint: median tumor weight change, dose: 300.0 mg/kg/injection, schedule: Q01DX001 (ip), vehicle: water) was 47 % of control. The T/C (endpoint: median tumor weight change, dose: 400.0 mg/kg/injection, schedule: Q01DX001 (ip), vehicle: water) was 95 % of control, the T/C (endpoint: median tumor weight change, dose: 600.0 mg/kg/injection, schedule: Q01DX001 (ip), vehicle: water) was 43 % of control and the T/C (endpoint: median tumor weight change, dose: 1200.0 mg/kg/injection, schedule: Q01DX001 (ip), vehicle: water) was 50 % of control.

For `CC(=O)OCC1OC(OC2=C(CC=C(C)C)C(=O)c3ccccc3C2=O)C(OC(C)=O)C(OC(C)=O)C1OC(C)=O` (stereo unspecified), the T/C [3] was 75 % of control and 98 % of control, the T/C [4] was 69 % of control and the T/C [5] was 113 % of control. The T/C (endpoint: median tumor weight (est.), dose: 200.0 mg/kg/injection, schedule: Q07DX005 (ip), vehicle: Klucel (hydroxypropylcellulose) (HPC)) was 107 % of control and the T/C (endpoint: median tumor weight (est.), dose: 400.0 mg/kg/injection, schedule: Q07DX005 (ip), vehicle: Klucel (hydroxypropylcellulose) (HPC)) was 79 % of control.
